Reference: article PMC6008493, “Thioamide substitution to probe the hydroxyproline recognition of VHL ligands” (Bioorganic & Medicinal Chemistry, 2018)
Read-outs that look alike come from different tables or passages of the source.

What was measured:
[1] = Quantification of ligand trans and cis isomers in solution by NMR; format: physicochemical; conditions: free ligand in solution
From the text: We next evaluated the impact of thioamide substitutions to the n → π^∗ interaction in the ligand free state in solution. This interaction is only possible when the Hyp (thio)amide group is in the trans isomer conformation (Fig. 1A). Thus, the ratio between the trans and cis isomers at equilibrium can be used to infer the strength of the n → π^∗ interaction.[13]
Quantification of ligands trans and cis isomers in solution.

[2] = target: T1, VBC protein (VHL, elongin B, elongin C) (Homo sapiens, UniProt P40337); assay: Competitive fluorescence polarization (FP) binding assay displacing FAM-labelled HIF-1α peptide
T1 construct: made in house
Protocol: Control wells contained VBC and peptide in the absence of compound (maximum signal), and peptide in the absence of protein (background signal). Data were obtained in triplicate and the percentage of displacement was determined and graphed against log[VHL inhibitors]. Average IC50 values and the standard error of the mean (SEM) were determined for each titration using Prism 6. Dissociation constants Kd were back-calculated from the measured IC50 values using a displacement binding model, as described previously.^6

[3] = target: VBC complex (VHL, elongin B, elongin C) (Homo sapiens, UniProt P40337); assay: Isothermal titration calorimetry (ITC) direct titration; conditions: for ΔH: ITC enthalpy of binding; for ΔH / Kd: 25°C; for Kd: read-out: Kd ITC, pH 7, 3% DMSO
[4] = back-calculated from measured IC50, 15 nM VBC, 10 nM FAM-HIF-1α peptide, pH 7, read-out: Kd FP
[5] = relative to unmodified ligand 1

trans:cis (%) - cis isomer [1] [%]	trans:cis (%) - trans isomer [1] [%]	Kd [2, 4] [µM]	loss in binding affinity by FP [2, 5]	ΔH [3] [kcal/mol]	Kd [3] [µM]	loss in binding affinity by ITC [3, 5]	Kd ([2]; text summary of FP and ITC, read-out: Kd) [µM]	Structure (SMILES)
8	92	–	–	–	–	–	–	CC(=O)N[C@@H](C)C(=O)N1C[C@H](O)C[C@H]1C(=O)NCc1ccc(-c2scnc2C)cc1 [compound 1]
11	89	–	–	–	–	–	–	CC(=O)N[C@@H](C)C(=O)N1C[C@H](O)C[C@H]1C(=S)NCc1ccc(-c2scnc2C)cc1 [compound 2, N-((S)-1-((2S,4R)-4-Hydroxy-2-((4-(4-methylthiazol-5-yl)benzyl)carbamothioyl)pyrrolidin-1-yl)-1-oxopropan-2-yl)acetamide]
6	94	1 ± 0.4	twofold	-6.79 ± 0.01	0.76 ± 0.02	twofold	–	CC(=O)N[C@@H](C)C(=S)N1C[C@H](O)C[C@H]1C(=O)NCc1ccc(-c2scnc2C)cc1 [compound 3, (2S,4R)-1-((S)-2-Acetamidopropanethioyl)-4-hydroxy-N-(4-(4-methylthiazol-5-yl)benzyl)pyrrolidine-2-carboxamide]
10	90	> 13	–	-2.56 ± 0.01	21.6 ± 0.8	–	> 10	CC(=O)N[C@@H](C)C(=S)N1C[C@H](O)C[C@H]1C(=S)NCc1ccc(-c2scnc2C)cc1 [compound 4, N-((S)-1-((2S,4R)-4-hydroxy-2-((4-(4-methylthiazol-5-yl)benzyl)carbamothioyl)pyrrolidin-1-yl)-1-thioxopropan-2-yl)acetamide]
